From patent US11384066B1, “Heterocyclic compounds useful as aurora a selective inhibitors” (Jacobio Pharmaceuticals Co., Ltd., priority 2020, dated 2022)

Legend:
Aurora A = Aurora A (Homo sapiens (Human), UniProt O14965); assay: Aurora A kinase assay (mobility shift assay); format: biochemical
Description: (§1) Example A: Evaluation of Aurora a and Aurora B Inhibitory Effect—Kinase Assay
(§2) The inhibitory activities of a test compound against Aurora A and Aurora B were measured according to the following method.
(§3) The IC50 value of Aurora A and Aurora B kinase was performed by Sundia MediTech Co. Ltd. using Mobility shift assay.
(§4) • (1) Prepare a 1× kinase buffer [50 mM 4-(2-hydroxyethyl)-1-piperazineethanesulfonic acid (HEPES), PH 7.5, 0.01% Brij-35, 10 mM MgCl2, 2 mM dithiothreitol (DTT)]. • (2) Prepare compound:
(§5) The testing compound was dissolved with DMSO. The testing compound was diluted up to 100× final concentration in a 384-well plate. Transfer 250 nL of the compound dilution to a 384-well assay plate using Echo 550. 100% DMSO of 250 nL was added to the negative control well and the positive control well. • (3) Prepare a 2.5× enzyme solution using the above 1× kinase buffer. • (4) Add 10 μL of the 2.5× enzyme solution to the compound well and the positive control well of the 384-well assay plate. Add 10 μL of the 1× kinase buffer to the negative control well. • (5) The 384-well plate was centrifuged at 1000 rpm for 30 seconds and incubated at room temperature for 10 min. • (6) A mixture of ATP and Kinase substrate 21 with a final concentration of 25/15× was prepared by the 1× kinase buffer. • (7) Add 15 μL of the mixture of 25/15×ATP and kinase substrate solution 21 to start reaction. • (8) The 384-well plate was centrifuged at 1000 rpm for 30 seconds and incubated at room temperature. • (9) 30 μL of the stop and detection buffer was added to stop the kinase reaction and centrifuged at 1000 rpm for 30 seconds. • (10) Collect data on Caliper EZ ReaderII. Data Analysis:
(§6) Conversion %_sample is conversion rate data of samples. Conversion %_min is mean value of negative control (conversion rate data without enzyme activation). Conversion %_max is mean positive control (conversion rate data without compound).
(§7) The log of concentration is on the X axis, and the percentage inhibition is on the Y axis. Fit the Quantitative effect curves with log (inhibitor) vs. response—Variable slope in GraphPad Prism5 obtain IC50 values. Equation used is Y=Bottom+(Top−Bottom)/(1+10^((Log IC50−X)*HillSlope)).

Aurora B = Aurora B (Homo sapiens (Human), UniProt Q96GD4); assay: Aurora B kinase assay (mobility shift assay); format: biochemical; settings: ratio of Aurora B IC50 to Aurora A IC50
Description: as §1, §2, §3, §4, §5, §6, §7

NCI-H2171 cells = assay: Cell proliferation assay (CellTiter-Glo), NCI-H2171; format: cell-based; settings: Homo sapiens, NCI-H2171, 120 h, 5 days
Description: (§8) Example B: Cell Proliferation Assay
(§9) NCI-H2171 and NCI-H446 cell proliferation analysis were conducted by CellTiter-Glo (Promega, Cat #G1111). The cells will be harvested respectively during the logarithmic growth period and counted with hemocytometer. […] Adjust NCI-H2171 and NCI-H446 cells concentrations to 1.0×10^5 cells/mL with complete medium (RPMI-1640 medium supplemented with 10% (v/v) fetal bovine serum). 100 μL/cell suspensions were added to 96-well plates, and the final cell densities were 1.0×10^4 cells/well. The plate will be cultured overnight in 5% CO2 and 95% humidity at 37° C. The next day, the test compound was dissolved in DMSO as stock solution. Then the different concentrations of compound were added into 96-well plates. The plates will be cultured for 5 days, then measured by means of CellTiter-Glo assay. 50 μL/cell CellTiter-Glo reagent was added into 96-well plates. Shock incubation for 5 min and then stand incubation for 10 min at room temperature. Record the Luminosity values using an microplate spectrophotometer (Spark, Tecan). Fit the data using GraphPad 8.0 and obtain IC50 values.
(§10) Formula: Survival (%)=(Lumtest−Lummedia control)/(Lumcell control−Lummedia control)×100%

NCI-H446 cells = assay: Cell proliferation assay (CellTiter-Glo), NCI-H446; format: cell-based; settings: Homo sapiens, NCI-H446, 120 h, 5 days
Description: as §8, §9, §10

PK in rat = format: in vivo; settings: SD male rats
Description: The compounds were dissolved into 10% DMSO, 30% PEG400, and 60% saline to obtain a solution. SD male rats were given the compound orally and intravenously. Then plasma samples were collected at 0 hour (pre-dose), 0.25, 0.5, 1, 2, 4, 7, 24 hours post-dose. Plasma drug concentration was detected by LC-MS/MS. Pharmacokinetic parameters were calculated using WinNonlin's software with non-compartmental model.

Sequence of Aurora A (O14965 whole entry): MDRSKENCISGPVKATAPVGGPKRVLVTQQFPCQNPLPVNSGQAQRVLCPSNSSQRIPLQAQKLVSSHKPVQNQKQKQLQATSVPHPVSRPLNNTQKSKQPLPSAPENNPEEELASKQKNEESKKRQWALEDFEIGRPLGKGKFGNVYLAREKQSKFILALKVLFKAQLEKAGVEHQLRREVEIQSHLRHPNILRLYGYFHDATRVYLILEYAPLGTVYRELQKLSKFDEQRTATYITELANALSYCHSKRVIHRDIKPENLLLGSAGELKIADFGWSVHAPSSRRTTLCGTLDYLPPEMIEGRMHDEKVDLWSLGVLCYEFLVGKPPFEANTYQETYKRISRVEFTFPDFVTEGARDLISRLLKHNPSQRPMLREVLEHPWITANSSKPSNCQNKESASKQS
Sequence of Aurora B (Q96GD4 whole entry): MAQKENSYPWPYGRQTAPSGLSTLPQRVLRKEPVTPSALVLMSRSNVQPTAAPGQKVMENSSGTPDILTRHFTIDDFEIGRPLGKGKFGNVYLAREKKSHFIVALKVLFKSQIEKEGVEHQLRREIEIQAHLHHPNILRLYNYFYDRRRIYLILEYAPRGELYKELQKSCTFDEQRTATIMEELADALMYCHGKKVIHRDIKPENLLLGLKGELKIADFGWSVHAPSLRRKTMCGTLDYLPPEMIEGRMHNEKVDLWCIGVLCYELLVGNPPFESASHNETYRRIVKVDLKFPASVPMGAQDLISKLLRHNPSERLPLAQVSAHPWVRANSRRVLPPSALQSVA

Compound | IC50 (Aurora A) | IC50 Ratio Aur B/Aur A (Aurora B) | other results
CC[C@@H]1C[C@](Cc2nc(Nc3cc(C)[nH]n3)ccc2F)(C(=O)O)CCN1Cc1cccc(Cl)c1F [Example 8, (2R,4R)-1-(3-chloro-2-fluorobenzyl)-2-ethyl-4-((3-fluoro-6-((5-methyl-1H-pyrazol-3-yl)amino)pyridin-2-yl)methyl) piperidine-4-carboxylic acid] | 1.2 nM | 1288 | IC50 (NCI-H2171 cells): 75 nM; IC50 (NCI-H446 cells): 119 nM
Cc1cc(Nc2cc(F)cc(C[C@@]3(C(=O)O)CCN(Cc4cccc(Cl)c4F)[C@H](C)C3)n2)n[nH]1 [Example 30, (2R,4R)-1-(3-chloro-2-fluorobenzyl)-4-((4-fluoro-6-((5-methyl-1H-pyrazol-3-yl)amino)pyridin-2-yl)methyl)-2-methylpiperidine-4-carboxylic acid] |  |  | IC50 (NCI-H2171 cells): 62 nM; IC50 (NCI-H446 cells): 128 nM
Cc1cc(Nc2ccc(F)c(C[C@@]3(C(=O)O)CCN([C@@H](C)c4cccc(Cl)c4F)[C@H](C)C3)n2)n[nH]1 [Example 41, (2R,4R)-1-(1-(3-chloro-2-fluorophenyl)ethyl)-4-((3-fluoro-6-((5-methyl-1H-pyrazol-3-yl)amino)pyridin-2-yl)methyl)-2-methylpiperidine-4-carboxylic acid] | 2.7 nM | 3682 | 
Cc1cc(Nc2cc(C)c(F)c(CC3(C(=O)O)CCN(Cc4cccc(Cl)c4F)CC3)n2)n[nH]1 [Example 51, 1-(3-chloro-2-fluorobenzyl)-4-((3-fluoro-4-methyl-6-((5-methyl-1H-pyrazol-3-yl)amino)-pyridin-2-yl)methyl)piper-idine-4-carboxylic acid] | 0.22 nM | 2833 | 
Cc1cc(Nc2cc(C)c(F)c(CC3(C(=O)O)CCN(Cc4cccc(F)c4F)CC3)n2)n[nH]1 [Example 52] | 1.3 nM | 1285 | 
Cc1cc(Nc2cc(C)c(F)c(C[C@@]3(C(=O)O)CCN(Cc4cccc(Cl)c4Cl)[C@H](C)C3)n2)n[nH]1 [Example 53, (2R,4R)-1-(2,3-dichloro-benzyl)-4-((3-fluoro-4-methyl-6-((5-methyl-1H-pyrazol-3-yl)-amino)pyridin-2-yl)methyl)-2-methylpiperidine-4-carboxylic acid] | 0.55 nM | 562 | IC50 (NCI-H2171 cells): 57 nM; IC50 (NCI-H446 cells): 154 nM
Cc1cc(Nc2cc(C)c(F)c(CC3(C(=O)O)CCN(Cc4cccc(Cl)c4Cl)CC3)n2)n[nH]1 [Example 54] | 0.43 nM | 2041 | 
Cc1cc(Nc2cc(C)c(F)c(CC3(C(=O)O)CCN(Cc4c(F)ccc(Cl)c4F)CC3)n2)n[nH]1 [Example 55, 1-(3-chloro-2,6-difluoro-benzyl)-4-((3-fluoro-4-methyl-6-((5-methyl-1H-pyrazol-3-yl)-amino)pyridin-2-yl)methyl) piperidine-4-carboxylic acid] | 0.88 nM | 3835 | 
CCc1cc(Nc2cc(C)[nH]n2)nc(CC2(C(=O)O)CCN(Cc3cccc(Cl)c3F)CC2)c1F [Example 66, 1-(3-chloro-2-fluorobenzyl)-4-((4-ethyl-3-fluoro-6-((5-methyl-1H-pyrazol-3-yl)amino)-pyridin-2-yl)methyl)piperidine-4-carboxylic acid] | 0.57 nM | 716 | 
Cc1cc(Nc2cc(C#N)c(F)c(C[C@@]3(C(=O)O)CCN(Cc4cccc(Cl)c4F)[C@H](C)C3)n2)[nH]n1 [Example 67, (2R,4R)-1-(3-chloro-2-fluorobenzyl)-4-((4-cyano-3-fluoro-6-((3-methyl-1H-pyrazol-5-yl)amino)pyridin-2-yl)methyl)-2-methylpiperidine-4-carboxylic acid] | 1.6 nM | 759 | 
CC(=O)c1cc(Nc2cc(C)[nH]n2)nc(CC2(C(=O)O)CCN(Cc3cccc(Cl)c3F)CC2)c1F [Example 69, 4-((4-acetyl-3-fluoro-6-((5-methyl-1H-pyrazol-3-yl)-amino)pyridin-2-yl)methyl)-1-(3-chloro-2-fluorobenzyl)-piperidine-4-carboxylic acid] |  |  | IC50 (NCI-H2171 cells): 41 nM; IC50 (NCI-H446 cells): 87 nM
Cc1cc(Nc2nc(C[C@@]3(C(=O)O)CCN(Cc4cccc(Cl)c4F)[C@H](C)C3)c(F)c(Cl)c2F)n[nH]1 [Example 74] | 0.67 nM | 3358 | 
Cc1cc(Nc2nc(CC3(C(=O)O)CCN(Cc4cccc(Cl)c4F)CC3)cc(C)c2F)n[nH]1 [Example 79, 1-(3-chloro-2-fluorobenzyl)-4-((5-fluoro-4-methyl-6-((5-methyl-1H-pyrazol-3-yl)amino)-pyridin-2-yl)methyl)piper-idine-4-carboxylic acid] | 0.61 nM | 2036 | 
Cc1cc(Nc2cc(S(C)(=O)=O)c(F)c(C[C@@]3(C(=O)O)CCN(Cc4cccc(Cl)c4F)[C@H](C)C3)n2)n[nH]1 [Example 81, (2R,4R)-1-(3-chloro-2-fluorobenzyl)-4-((3-fluoro-6-((5-methyl-1H-pyrazol-3-yl)amino)-4-(methylsulfonyl)pyridin-2-yl)methyl)-2-methylpiperidine-4-carboxylic acid] | 0.77 nM | 1353 | 
Cc1cc(Nc2nc(C[C@@]3(C(=O)O)CCN(Cc4cccc(Cl)c4F)[C@H](C)C3)c(F)c(Cl)c2Cl)n[nH]1 [Example 84, (2R,4R)-1-(3-chloro-2-fluorobenzyl)-4-((4,5-dichloro-3-fluoro-6-((5-methyl-1H-pyrazol-3-yl)amino)pyridin-2-yl)methyl)-2-methylpiperidine-4-carboxylic acid] | 1.4 nM | 4026 | 
Cc1cc(Nc2nc(C[C@@]3(C(=O)O)CCN(Cc4cccc(Cl)c4F)[C@H](C)C3)cc(C#N)c2F)n[nH]1 [Example 90, (2R,4R)-1-(3-chloro-2-fluorobenzyl)-4-((4-cyano-5-fluoro-6-((5-methyl-1H-pyrazol-3-yl)amino)pyridin-2-yl)methyl)-2-methylpiperidine-4-carboxylic acid] | 0.54 nM | 1479 | 
Cc1cc(Nc2nc(C[C@@]3(C(=O)O)CCN(Cc4cccc(Cl)c4F)[C@H](C)C3)c(F)cc2F)n[nH]1 [Example 91, (2R,4R)-1-(3-chloro-2-fluorobenzyl)-4-((3,5-difluoro-6-((5-methyl-1H-pyrazol-3-yl)amino)pyridin-2-yl)methyl)-2-methylpiperidine-4-carboxylic acid] | 1.1 nM | 451 | 
Cc1cc(Nc2nc(CC3(C(=O)O)CCN(Cc4cccc(Cl)c4F)CC3)c(F)cc2F)n[nH]1 [Example 92] | 0.74 nM | 4393 | 
Cc1[nH]nc(Nc2ccc(F)c(CC3(C(=O)O)CCN(Cc4cccc(Cl)c4F)C(C)C3)n2)c1C (stereo not drawn) [Example 102, 1-(3-chloro-2-fluorobenzyl)-4-((6-((4,5-dimethyl-1H-pyrazol-3-yl)-amino)-3-fluoropyridin-2-yl)-methyl)-2-methylpiperidine-4-carb-oxylic acid] | 0.93 nM | 804 | 
Cc1cc(Nc2ccc(F)c(C[C@@]3(C(=O)O)CCN(Cc4cccc(Cl)c4F)[C@H](C)C3)n2)n[nH]1 [LY3295668, reference compound] |  |  | CL (PK in rat; IV: 3 mg/kg): 1.52 mL/min/kg; Vss (PK in rat; IV: 3 mg/kg): 0.29 L/kg; AUClast (PK in rat; PO: 10 mg/kg): 91211 ng·h/mL; Cmax (PK in rat; PO: 10 mg/kg): 15033 ng/mL; t1/2 (PK in rat; PO: 10 mg/kg): 3.37 h; F% (PK in rat; PO: 10 mg/kg vs IV: 3 mg/kg): 81%
